Test system: quiescent fibroblasts from healthy controls
Test: mtDNA copy number (quantitative PCR) after EtBr-forced depletion in quiescent fibroblasts from healthy controls
Format: cell-based, human
Details: control cells, 14 days exposure to 5 ng/ml EtBr
Experimental: Primary cultured fibroblasts were obtained from skin biopsies of patients 1-3 and 4 healthy donors. All subjects gave informed consent in accordance with our Institutional Review Boards and the Declaration of Helsinki.
Cells were seeded in 6-well plates of 9.5 cm^2 in Dulbecco's modified Eagle's medium (DMEM) with 4.5 g/L glucose, supplemented with 2 mM L-glutamine, 100 U/ml penicillin and streptomycin, and 10% dialyzed Fetal Bovine Serum (FBS) (Invitrogen) in a humidified incubator at 37° C. and 5% CO2. After tight confluence was reached, FBS was reduced to 0.1% to induce quiescence and simultaneous treatment with 5 ng/ml of EtBr (ethidium bromide, Merck) was initiated (day 0, t0). Cell media was replaced with the same treatment every 2-3 days for two weeks. At day 14 (t14) EtBr was withdrawn from cell media and the treatment of a set of all cells was initiated with 200 μM of all four deoxynucleosides (dNs): dAdo (deoxyadenosine, Sigma), dCtd (deoxycytidine, Sigma), dGuo (deoxyguanosine, Sigma), dThd (deoxythymidine, Sigma) and 5 μM EHNA (Sigma). A set of cells was left untreated and all parameters were monitored in parallel. Cell media was replaced with the same treatment every 2-3 days for 12 additional days. At days 16 or 17 media were collected and stored at −20° C. until further use. […]
mtDNA copy number was assessed by quantitative PCR as previously described. […]

CC[n+]1c(-c2ccccc2)c2cc(N)ccc2c2ccc(N)cc21 [EtBr, ethidium bromide]
averaged percentage of mtDNA residual levels ± SE: 39.68±6.6%
